Test system: renal cell carcinoma tissue, Patient Sample GS-640 (kidney tissue)
Assay: tumor tissue fragments in three-dimensional gel matrix: cell migration/invasion away from the fragment under chemotherapy
Type: cell-based, human
Settings: 5 days treatment; for number of invading cells: compared with control sample at Day 5; for response of tumor sample to the drug (behavior of cells growing and invading away from the solid tumor fragment): patient renal cell carcinoma fragments in gel matrix, 37 degree Celsius, 5% CO2, compared with untreated control
Description: FIGS. 1-8 are photographic and photomicrographic images which show, by way of example, use of the means and methods of the present invention with respect to a tissue sample removed from a patient. With respect to FIGS. 1-8, Patient Sample GS-640, comprising kidney tissue, was removed from the patient by a surgeon during surgery.
Tissue analysis and screening in accordance with the invention were requested by the surgeon, and proper consent was obtained from the patient prior to surgical removal of a sample quantity of tissue from the RHS Kidney. The patient was diagnosed with renal cell carcinoma. A tissue sample of approximately 1 gram in quantity was removed from the patient during surgery, and was placed into a 25 ml sample jar, and immersed in sterile saline. The tumor tissue was kept at 4 degrees centigrade until processed for the screening of therapeutic compounds in accordance with the means and methods of the invention. All procedures were performed under sterile conditions in a bio-safety laminar flow hood.
FIG. 1 is a photographic image showing the mechanical division of the sample into portions to be tested. The sample has been prepared by dissecting away any non viable tissue and blood prior to mincing into 1-2 mm pieces using sterile disposable scalpels.
FIG. 2 is a photographic image showing tumor sample portions which have been placed into each well of a 48 well plate, and been submersed in a gel matrix mixture according to the invention. After insertion of the portions, the mixture was allowed to form into a gel at room temperature for approximately 30 minutes. Once the gel formed around the fully immersed tumor fragments, nutrient rich media was added as a liquid overlay that permeated the entire gel and tumor fragment.
Each different chemotherapy and or dose of chemotherapy was added to a set of 6 wells out of the 48-well plate. A total of 7 different chemotherapies were assessed in this plate. One set of six wells were not treated with drug and thus acted as ‘control conditions’ for tumor fragment growth and invasion. Each of the eight vertical lanes containing six separate wells was marked with a symbol for each chemotherapy/dose used and noted correspondingly on data collection sheets. […] The plates were then placed in a conventional 37 degree Celsius incubator at 5% CO2.
This image is thus representative of all wells at Day 0 with or without chemotherapeutics. Images were made with a 400× magnification phase contrast micrograph using ZEISS camera specs.
FIG. 4 is a photomicrographic image which showing a patient control sample (no treatment) after 3 days incubation @37° C. and 5% CO2. Noteworthy is the migration of cells away from the solid tumor mass in a halo around the tumour fragment.
Noteworthy is the halo of cells and increased cell density as compared with the results shown at Day 3 of the test. The lines on the images have been drawn to show the distance measurements within which approximately 95% of the migrating cells have migrated away from the margins of the tissue sample.

With CC(=O)O[C@@]12CO[C@@H]1C[C@H](O)[C@@]1(C)C(=O)[C@H](O)C3=C(C)[C@@H](OC(=O)[C@H](O)[C@@H](NC(=O)OC(C)(C)C)c4ccccc4)C[C@@](O)([C@@H](OC(=O)c4ccccc4)[C@H]21)C3(C)C [Docetaxol, Docetaxel] the “migratory distance of cells” value was “longer migratory distance than treatment with Taxol”, the “number of invading cells” value was “fewer number of invading cells than the control” and the “response of tumor sample to the drug (behavior of cells growing and invading away from the solid tumor fragment)” value (“response of tumor sample to the drug” below) was “moderate response”.
With N.N.[Cl][Pt][Cl] [Cisplatin] the “number of invading cells” value was “identical in appearance and cell numbers to the control sample” and the “response of tumor sample to the drug” value was “failed chemotherapy”.
With CC(=O)O[C@H]1C(=O)[C@@]2(C)[C@H]([C@H](OC(=O)c3ccccc3)[C@]3(O)C[C@H](OC(=O)[C@H](O)[C@@H](NC(=O)c4ccccc4)c4ccccc4)C(C)=C1C3(C)C)[C@]1(OC(C)=O)CO[C@@H]1C[C@@H]2O [Taxol, Paclitaxel] the “response of tumor sample to the drug” value was “a drop in both the distance and the number of cells that have grown and invaded away from the solid tumor fragment”.

Reference: patent publication US7977041B2, “Methods and kits for testing the efficacy of therapeutic compounds and other therapies in a three-dimensional matrix with respect to tumorous cells and tissue” (priority 2006, dated 2011)
